Measured values taken from patent US20110165271A1, “ANTITUMORAL TERPENOID PHARMACEUTICAL COMPOSITION 'ABISILIN' EXHIBITING ANGIOGENESIS-INHIBITING ACTION” (priority 2008, published 2011).

What was measured:
[1] = tested on: breast adenocarcinoma Ca-755; assay: Antitumor activity on transplantable tumor; format: in vivo, mice; settings: Abisilin 50 mg/kg per os days 2-11 and/or Cisplatin 5 mg/kg once day 2
Protocol: (§1) The mice and rats were purchased from the Experimental Animal Division of the Blokhin Russian Oncologic Center, the Russian Academy of Medicinal Sciences, and maintained on an ordinary food ration.
(§2) Sunflower seed oil was used as the solvent for the pharmaceutical.
(§3) Cisplatin purchased from Bristol-Myers Squibb was used in the experiments.
(§4) Abisilin was administered to animals orally every day for 10 days, or in the following schedule: on the 2nd and 6th days or on the 2nd and 11th days. […] In the combined treatment, Abisilin was administered to mice orally every day for 10 days, beginning 48 h after tumor transplantation, in a dose of 50 mg/kg; the antitumor agent Cisplatin was administered once intraperitonially (ip) in a dose of 5 mg/kg. Animals bearing the aforementioned tumors were monitored until they died. The antitumor effects of the pharmaceutical were judged from percentage tumor growth inhibition (TGI, %) in the experimental animals against control animals.
(§5) The statistical significance of the antitumor effect against the untreated control was determined by the Fisher-Student test. The difference between the compared groups was regarded as statistically reliable when p≦0.05.

[2] = tested on: colon adenocarcinoma (CAC); assay: Antitumor activity on transplantable tumor; format: in vivo, mice
Protocol: as §1, §2, §3, §4, §5

melanoma B-16 = assay: Antitumor activity on transplantable tumor; format: in vivo, mice; settings: Abisilin 50 mg/kg per os days 2-11 and/or Cisplatin 5 mg/kg once day 2
Protocol: as §1, §2, §3, §4, §5

[3] = tested on: metastatic colorectal cancer; settings: patients bearing metastatic colorectal cancer; increase from 15.6 months; cited from earlier work

Molecule	TGI ([1]; day 7)	TGI ([1]; day 11)	TGI ([1]; day 14)	TGI ([1]; day 18)	TGI ([1]; day 22)	TGI ([2]; day 7, Abisilin 50 mg/kg per os days 2-11 and/or Cisplatin 5 mg/kg once day 2)	TGI ([2]; day 12, Abisilin 50 mg/kg per os days 2-11 and/or Cisplatin 5 mg/kg once day 2)	TGI ([2]; day 21, Abisilin 50 mg/kg per os days 2-11 and/or Cisplatin 5 mg/kg once day 2)	TGI ([2]; day 22, Cisplatin 5 mg/kg once day 2)	sensitivity of the tumor in monotherapy ([2]; monotherapy, Abisilin 50 mg/kg, Cisplatin 5 mg/kg)	TGI (melanoma B-16; day 7)	TGI (melanoma B-16; day 9)	TGI (melanoma B-16; day 11)	TGI (melanoma B-16; day 17)	total survival period [3]
N.N.[Cl][Pt][Cl] [Cisplatin]	86%	62%	52%	43%	39%	0%	22%	14%	35%	insensitive	80%	83%	65%	19%	
Avastin: monoclonal antibody drug binding vascular endothelial growth factor (VEGF); active substance bevacizumab															20.3 months
